Measured values from patent US20260176320A1, “MODULATORS OF G-PROTEIN COUPLED RECEPTORS” (priority 2018, published 2026).
Like-named read-outs stand apart in the source and are kept apart here. Numbered stars: 1 amine (or outer) side, 2 acyl side, 3 side chain; on linkers, the order of the positions; unused ones are H or OH. Square brackets hold non-standard residues; d marks the D form. Side chains are listed from the residue outwards. Peptide text beside a SMILES is read from it. * marks the point of attachment. Ala(1H-tetrazol-5-yl) = N[C@@H](Cc1nnn[nH]1)C(=O)O; X1 = O=C(CSCC(=O)*)NCCN1C(=O)c2ccccc2C1=O; γGlu = O=C(O)[C@H](CCC(=O)[*:2])N[*:1]; Palmitoyl = CCCCCCCCCCCCCCCC(=O)*; X6 = O=C(CSCC(=O)*)NCCN1CCCCC1=O; Aib = CC(C)(N)C(=O)O

Legend:
Format in all cases: cell-based
GIP-R = target: T1, GIP-R (Homo sapiens, UniProt P48546); assay: HitHunter cAMP assay (GIP-R); conditions: cAMP; for Emax: read-out: (Emax) GIP-R
T1 sequence (P48546 22-466): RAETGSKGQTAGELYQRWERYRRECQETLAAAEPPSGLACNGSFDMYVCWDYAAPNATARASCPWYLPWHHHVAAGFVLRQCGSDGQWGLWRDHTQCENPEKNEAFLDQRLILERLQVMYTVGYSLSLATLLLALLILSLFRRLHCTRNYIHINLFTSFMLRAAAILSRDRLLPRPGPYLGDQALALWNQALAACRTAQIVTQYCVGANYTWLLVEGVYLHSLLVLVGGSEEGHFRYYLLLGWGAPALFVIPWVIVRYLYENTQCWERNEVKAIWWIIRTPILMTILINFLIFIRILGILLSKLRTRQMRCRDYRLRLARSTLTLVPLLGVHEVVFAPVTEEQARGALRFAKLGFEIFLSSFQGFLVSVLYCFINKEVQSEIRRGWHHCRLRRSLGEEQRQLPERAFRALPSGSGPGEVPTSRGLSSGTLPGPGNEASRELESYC
Procedure, shortened: (§1)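 cAMP, luminescence read: agonist 22-pt 2× dilution in DMSO, duplicate, 30 min RT on 10,000 cells/well in 1×HBSS/10 mM HEPES/625 μM IBMX/0.2% BSA; anti-cAMP reagent 1 h RT dark, then O/N RT dark before read.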

GLP-1R [1] = target: T2, GLP-1R (Homo sapiens, UniProt P43220); assay: PathHunter β-arrestin assay
Procedure, shortened: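 Luminescence read-out of β-arrestin recruitment (enzyme-fragment complementation detection, 3 h at room temperature in the dark) after 90 min agonist stimulation at 37 °C. Agonists tested as 22-point 2× serial dilutions in duplicate, in medium containing 0.2% BSA.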

GLP-1R [2] = target: T2, GLP-1R; assay: HitHunter cAMP assay (GLP-1R); conditions: cAMP; for Emax: read-out: (Emax) GLP-1R
Procedure, shortened: as §1

[3] = Table 3A, read-out: EC50 GIP-R/nM
[4] = PathHunter β-arrestin assay, read-out: β-arrestin activity EC50
[5] = Table 3A, read-out: EC50 GLP-1R/nM

T2 sequence (P43220 24-463): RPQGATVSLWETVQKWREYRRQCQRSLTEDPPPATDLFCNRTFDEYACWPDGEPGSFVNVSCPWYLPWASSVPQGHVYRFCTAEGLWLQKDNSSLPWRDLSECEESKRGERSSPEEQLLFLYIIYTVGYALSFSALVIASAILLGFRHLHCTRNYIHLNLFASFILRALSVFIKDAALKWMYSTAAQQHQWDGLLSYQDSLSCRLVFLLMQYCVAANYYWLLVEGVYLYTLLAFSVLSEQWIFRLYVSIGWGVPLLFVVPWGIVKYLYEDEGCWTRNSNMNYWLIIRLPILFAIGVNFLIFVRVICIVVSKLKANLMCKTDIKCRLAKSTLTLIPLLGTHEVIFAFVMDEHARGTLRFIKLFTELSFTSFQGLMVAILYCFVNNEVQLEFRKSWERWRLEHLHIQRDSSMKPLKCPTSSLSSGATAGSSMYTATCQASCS

Structure (SMILES): CC[C@H](C)[C@H](NC(=O)[C@H](CO)NC(=O)[C@H](Cc1ccc(O)cc1)NC(=O)[C@H](CC(=O)O)NC(=O)[C@H](CO)NC(=O)[C@@H](NC(=O)[C@H](Cc1ccccc1)NC(=O)[C@@H](NC(=O)CNC(=O)[C@H](CCC(=O)O)NC(=O)CSCC(=O)NCCN1C(=O)c2ccccc2C1=O)[C@@H](C)O)[C@@H](C)O)C(=O)N[C@@H](Cc1ccc(O)cc1)C(=O)N[C@@H](CC(C)C)C(=O)N[C@@H](CC(=O)O)C(=O)N[C@@H](CCCCN)C(=O)N[C@@H](CCC(N)=O)C(=O)N[C@@H](C)C(=O)N[C@H](C(=O)NC(C)(C)C(=O)N[C@@H](CCC(=O)O)C(=O)N[C@@H](Cc1ccccc1)C(=O)N[C@H](C(=O)N[C@@H](CC(N)=O)C(=O)N[C@@H](Cc1c[nH]c2ccccc12)C(=O)N[C@@H](CC(C)C)C(=O)N[C@@H](CC(C)C)C(=O)N[C@@H](C)C(=O)NCC(=O)NCC(=O)N1CCC[C@H]1C(=O)N[C@@H](CO)C(=O)N[C@@H](CO)C(=O)NCC(=O)N[C@@H](C)C(=O)N1CCC[C@H]1C(=O)N1CCC[C@H]1C(=O)N1CCC[C@H]1C(=O)N[C@@H](CO)C(=O)N[C@@H](CCCCN)C(N)=O)[C@@H](C)CC)C(C)C [Compound 133] (X1-EGTFTSDYSIYLDKQAV[Aib]EFINWLLAGGPSSGAPPPSK-NH2)
- EC50 (GIP-R; EC50 GIP-R/nM, Table 3): 0.1 to 1 nM
- EC50 (GIP-R; EC50 GIP-R/nM, Table 3A): 0.1 to 1 nM
- Emax (GIP-R; Table 3): 104%
- Emax (GIP-R; Table 3A): 104%
- EC50 (GLP-1R [1]): > 1000 nM
- EC50 (GLP-1R [2]; EC50 GLP-1R/nM, Table 3): 1 to 10 nM
- EC50 (GLP-1R [2]; EC50 GLP-1R/nM, Table 3A): 1 to 10 nM
- Emax (GLP-1R [2]; Table 3): 98%
- Emax (GLP-1R [2]; Table 3A): 98%

Structure (SMILES): CC[C@H](C)[C@H](NC(=O)[C@H](CO)NC(=O)[C@H](CC(C)C)NC(=O)[C@H](CC(=O)O)NC(=O)[C@H](CO)NC(=O)[C@@H](NC(=O)[C@H](Cc1ccccc1)NC(=O)[C@@H](NC(=O)CNC(=O)[C@H](CCC(=O)O)NC(=O)CSCC(=O)NCCN1C(=O)c2ccccc2C1=O)[C@@H](C)O)[C@@H](C)O)C(=O)N[C@@H](Cc1ccc(O)cc1)C(=O)N[C@@H](CC(C)C)C(=O)N[C@@H](CC(=O)O)C(=O)N[C@@H](CCCCN)C(=O)N[C@@H](CCC(N)=O)C(=O)N[C@@H](C)C(=O)N[C@@H](C)C(=O)NC(C)(C)C(=O)N[C@@H](CCC(=O)O)C(=O)N[C@@H](Cc1ccccc1)C(=O)N[C@H](C(=O)N[C@@H](CC(N)=O)C(=O)N[C@@H](Cc1c[nH]c2ccccc12)C(=O)N[C@@H](CC(C)C)C(=O)N[C@@H](CC(C)C)C(=O)N[C@@H](C)C(=O)NCC(=O)NCC(=O)N1CCC[C@H]1C(=O)N[C@@H](CO)C(=O)N[C@@H](CO)C(=O)NCC(=O)N[C@@H](C)C(=O)N1CCC[C@H]1C(=O)N1CCC[C@H]1C(=O)N1CCC[C@H]1C(=O)N[C@@H](CO)C(=O)N[C@@H](CCCCN)C(N)=O)C(C)C [Compound 151] (X1-EGTFTSDLSIYLDKQAA[Aib]EFVNWLLAGGPSSGAPPPSK-NH2)
- EC50 (GIP-R; EC50 GIP-R/nM, Table 3): 0.1 to 1 nM
- EC50 (GIP-R; EC50 GIP-R/nM, Table 3A): 0.1 to 1 nM
- Emax (GIP-R; Table 3): 117 to 119%
- Emax (GIP-R; Table 3A): 117 to 119%
- EC50 (GLP-1R [1]): > 1000 nM
- EC50 (GLP-1R [2]; EC50 GLP-1R/nM, Table 3): 1 to 10 nM
- EC50 (GLP-1R [2]; EC50 GLP-1R/nM, Table 3A): 1 to 10 nM
- Emax (GLP-1R [2]; Table 3): 103 to 107%
- Emax (GLP-1R [2]; Table 3A): 103 to 107%

Structure (SMILES): CCCCCCCCCCCCCCCC(=O)N[C@@H](CCC(=O)NCCCC[C@H](NC(=O)[C@H](CO)NC(=O)[C@@H]1CCCN1C(=O)[C@@H]1CCCN1C(=O)[C@@H]1CCCN1C(=O)[C@H](C)NC(=O)CNC(=O)[C@H](CO)NC(=O)[C@H](CO)NC(=O)[C@@H]1CCCN1C(=O)CNC(=O)CNC(=O)[C@H](C)NC(=O)[C@H](CC(C)C)NC(=O)[C@H](CC(C)C)NC(=O)[C@H](Cc1c[nH]c2ccccc12)NC(=O)[C@H](CC(N)=O)NC(=O)[C@@H](NC(=O)[C@H](Cc1ccccc1)NC(=O)[C@H](CCC(=O)O)NC(=O)C(C)(C)NC(=O)[C@H](C)NC(=O)[C@H](C)NC(=O)[C@H](CCC(N)=O)NC(=O)[C@H](CCCCN)NC(=O)[C@H](CC(=O)O)NC(=O)[C@H](CC(C)C)NC(=O)[C@H](Cc1ccc(O)cc1)NC(=O)[C@@H](NC(=O)[C@H](CO)NC(=O)[C@H](Cc1ccc(O)cc1)NC(=O)[C@H](CC(=O)O)NC(=O)[C@H](CO)NC(=O)[C@@H](NC(=O)[C@H](Cc1ccccc1)NC(=O)[C@@H](NC(=O)CNC(=O)[C@H](CCC(=O)O)NC(=O)CSCC(=O)NCCN1CCN(C)C(=O)C1)[C@@H](C)O)[C@@H](C)O)[C@@H](C)CC)C(C)C)C(N)=O)C(=O)O [Compound 38]
- Emax (GIP-R; Table 3): 18 to 43%
- EC50 (GIP-R; Table 3, read-out: EC50 GIP-R/nM): 1 to 10 nM
- Emax (GIP-R; Table 3A): 18 to 43%
- EC50 (GIP-R; [3]): 1 to 1000 nM
- EC50 (GLP-1R [1]; [4]): > 1000 nM
- Emax (GLP-1R [2]; Table 3): 97 to 104%
- EC50 (GLP-1R [2]; Table 3, read-out: EC50 GLP-1R/nM): 0.1 to 1 nM
- Emax (GLP-1R [2]; Table 3A): 97 to 104%
- EC50 (GLP-1R [2]; [5]): 0.1 to 1 nM

Structure (SMILES): CC[C@H](C)[C@H](NC(=O)[C@H](CO)NC(=O)[C@H](Cc1ccc(O)cc1)NC(=O)[C@H](CC(=O)O)NC(=O)[C@H](CO)NC(=O)[C@@H](NC(=O)[C@H](Cc1ccccc1)NC(=O)[C@@H](NC(=O)CNC(=O)[C@H](CCC(=O)O)NC(=O)CCNC(=O)CCCN1C(=O)CSC1=O)[C@@H](C)O)[C@@H](C)O)C(=O)N[C@@H](Cc1ccc(O)cc1)C(=O)N[C@@H](CC(C)C)C(=O)N[C@@H](CC(=O)O)C(=O)N[C@@H](CCCCN)C(=O)N[C@@H](CCC(N)=O)C(=O)N[C@@H](C)C(=O)N[C@@H](C)C(=O)NC(C)(C)C(=O)N[C@@H](CCC(=O)O)C(=O)N[C@@H](Cc1ccccc1)C(=O)N[C@H](C(=O)N[C@@H](CC(N)=O)C(=O)N[C@@H](Cc1c[nH]c2ccccc12)C(=O)N[C@@H](CC(C)C)C(=O)N[C@@H](CC(C)C)C(=O)N[C@@H](C)C(=O)NCC(=O)NCC(=O)N1CCC[C@H]1C(=O)N[C@@H](CO)C(=O)N[C@@H](CO)C(=O)NCC(=O)N[C@@H](C)C(=O)N1CCC[C@H]1C(=O)N1CCC[C@H]1C(=O)N1CCC[C@H]1C(=O)N[C@@H](CO)C(=O)N[C@@H](CCCCN)C(N)=O)C(C)C [Compound 172]
- EC50 (GIP-R; EC50 GIP-R/nM, Table 3): 10 to 100 nM
- EC50 (GIP-R; EC50 GIP-R/nM, Table 3A): 10 to 100 nM
- Emax (GIP-R; Table 3): 63 to 71%
- Emax (GIP-R; Table 3A): 63 to 71%
- EC50 (GLP-1R [1]): > 1000 nM
- EC50 (GLP-1R [2]; EC50 GLP-1R/nM, Table 3): 1 to 10 nM
- EC50 (GLP-1R [2]; EC50 GLP-1R/nM, Table 3A): 1 to 10 nM
- Emax (GLP-1R [2]; Table 3): 98 to 101%
- Emax (GLP-1R [2]; Table 3A): 98 to 101%

Structure (SMILES): CCCCCCCCCCCCCCCC(=O)N[C@@H](CCC(=O)NCCCC[C@H](NC(=O)[C@H](CO)NC(=O)[C@@H]1CCCN1C(=O)[C@@H]1CCCN1C(=O)[C@@H]1CCCN1C(=O)[C@H](C)NC(=O)CNC(=O)[C@H](CO)NC(=O)[C@H](CO)NC(=O)[C@@H]1CCCN1C(=O)CNC(=O)CNC(=O)[C@H](C)NC(=O)[C@H](CC(C)C)NC(=O)[C@H](CC(C)C)NC(=O)[C@H](Cc1c[nH]c2ccccc12)NC(=O)[C@H](CC(N)=O)NC(=O)[C@@H](NC(=O)[C@H](Cc1ccccc1)NC(=O)[C@H](CCC(=O)O)NC(=O)C(C)(C)NC(=O)[C@H](C)NC(=O)[C@H](C)NC(=O)[C@H](CCC(N)=O)NC(=O)[C@H](CCCCN)NC(=O)[C@H](CC(=O)O)NC(=O)[C@H](CC(C)C)NC(=O)[C@H](Cc1ccc(O)cc1)NC(=O)[C@@H](NC(=O)[C@H](CO)NC(=O)[C@H](Cc1ccc(O)cc1)NC(=O)[C@H](CC(=O)O)NC(=O)[C@H](CO)NC(=O)[C@@H](NC(=O)[C@H](Cc1ccccc1)NC(=O)[C@@H](NC(=O)CNC(=O)[C@H](Cc1nn[nH]n1)NC(=O)CSCC(=O)NCCN1CCCCC1=O)[C@@H](C)O)[C@@H](C)O)[C@@H](C)CC)C(C)C)C(N)=O)C(=O)O [Compound 223] (X6-[Ala(1H-tetrazol-5-yl)]GTFTSDYSIYLDKQAA[Aib]EFVNWLLAGGPSSGAPPPSK([γGlu-Palmitoyl])-NH2)
- Emax (GIP-R; Table 3A): 91%
- EC50 (GIP-R; [3]): 0.1 to 1 nM
- EC50 (GLP-1R [1]; [4]): 10 to 1000 nM
- Emax (GLP-1R [2]; Table 3A): 101%
- EC50 (GLP-1R [2]; [5]): < 0.1 nM
